How the values were obtained:
[1] = system: excisional wound-induced hypertrophic scarring in the ears of New Zealand White rabbits; assay: Rabbit ear hypertrophic scar model; type: in vivo; conditions: POD28; for amount of type I collagen in the dermis (Western blot, densitometry) / erythema in developed scars: intradermal; for erythema in developed scars: three injections
Experimental: Harvested scars were processed and analyzed to determine scar elevation index (SEI), a common quantitative histological measurement used to assess scar hypertrophy (FIG. 17). […] MATERIALS AND METHODS Materials […] dihydrochloride hydrate, homoharringtonine, Ch55 and panobinostat were acquired from Fisher Scientific (Waltham, MA). AZD-7762 was acquired from Selleck Chemicals (Houston, TX). For in vitro work, emetine dihydrochloride hydrate was dissolved in sterile H2O at 50 mM. Homoharringtonine was dissolved in DMSO at 10 mg/mL. Panobinostat was dissolved in DMSO at 425 μM. […] Recombinant human TGF-β1 (Sigma-Aldrich) was dissolved in sterile H2O at 50 µg/mL. All-trans-retinoic acid (Thermo Scientific) was dissolved in DMSO at 10 mM. […] All animal experiments were approved prior to initiation by the Northwestern University Institutional Animal Care and Use Committee (IACUC). Rabbit experiments were performed in female New Zealand White rabbits (Envigo, Indianapolis, IN) of mass 2.5-3 kg. The hypertrophic scar model was performed as described in previous publications (Dolivo et al., Jia et al., 2017, Xie et al., 2020). Briefly, on each ear, six full-thickness circular excisional wounds of 7-mm diameter were created down to the perichondrium using biopsy punches, and excised tissue was removed gently using forceps. Wounds were covered with Tegaderm (3M Healthcare, St. Paul, MN) and wounds were allowed to re-epithelialize until post-operative day (POD) 12. […] Injections were performed on POD16, POD19, and POD22. On POD28, measurements of erythema were performed using a DermaLab Combo (CyberDerm, Broomall, PA) immediately prior to euthanasia and tissue harvest. Harvested scar tissues were incubated in 0.5M ammonium thiocyanate for 20 minutes, followed by mechanical separation of dermis and epidermis using a dissecting microscope. Isolated dermal tissues were minced with a razor blade, submerged in RIPA buffer, and homogenized in the presence of 2 mm zirconia beads using a MagNA Lyser (Roche, Basel, Switzerland). Alternatively, cell culture samples were detached from the culture surface by trypsinization, collected by centrifugation, and lysed in RIPA buffer. Protein concentrations of cell culture and tissue samples were determined using a DC protein assay (BioRad). Five micrograms of total protein were loaded onto polyacrylamide gels and subjected to SDS-PAGE before transfer to nitrocellulose membranes, blocking with 5% dry milk in TBS-T, and probing with target-specific primary antibodies overnight. Species-specific secondary antibody solutions were added to membranes, and chemiluminescent signal was developed with Amersham ECL Western blotting detection reagent using X-ray film. Harvested tissues were fixed in 10% neutral-buffered formalin for 24 hours before serial dehydration and embedding in paraffin. […] Slides were deparaffinized and rehydrated in xylene and serial ethanol. Tissue samples were stained with hematoxylin and eosin (H&E), Modified Masson's Trichrome stain (Scytek, Logan, UT), or picrosirius red/fast green according to standard protocols.

[2] = system: primary human foreskin fibroblasts; conditions: second donor, 1,000 nM, 24 hours
Experimental: Cell culture Primary human neonatal foreskin fibroblasts were obtained from the Skin Biology and Diseases Resource-based Center at Northwestern University. Primary rabbit dermal fibroblasts were isolated from female New Zealand White rabbits via harvesting full-thickness skin biopsies from rabbit ears, digesting overnight in a solution of 5 mg/mL dispase, and subsequently mechanically separating dermis from epidermis. After discarding epidermal tissue, dermal tissue was minced with a razor blade, and fibroblasts were liberated through collagenase-mediated digestion for growth in culture. […] Human fibroblasts and rabbit fibroblasts were cultured on tissue culture plastic (or, for immunofluorescence experiments, on glass coverslips) in DMEM+10% FBS and were serum starved in DMEM+0.1% FBS for 24 hours prior to drug treatments. When indicated, recombinant human TGF-β 1 was included in culture medium at a concentration of 10 ng/mL. Cultures were maintained in a humidified cell culture incubator at 37° C., 5% CO2, and ambient O2. For treatment with drugs and associated vehicle controls, the fraction of DMSO in the media was always maintained at <0.1% (v/v) in order to avoid confounding effects. […]

[3] = system: primary human foreskin fibroblasts; assay: In vitro single-concentration screen of predicted compounds (brightfield, qRT-PCR); type: cell-based; conditions: single concentration, 24 hours, vs vehicle
Experimental: In order to initially test the identified drugs, we applied each drug or DMSO vehicle control at a single concentration to primary human foreskin fibroblasts in vitro for 24 hours, before harvesting and measuring relative expression of selected myofibroblast marker genes by qRT-PCR. […] None of the drugs tested appeared to affect expression of TGFB1 (the gene encoding transforming growth factor-beta 1) at the examined concentrations.
MATERIALS AND METHODS Materials Emetine dihydrochloride hydrate, homoharringtonine, Ch55 and panobinostat were acquired from Fisher Scientific (Waltham, MA). AZD-7762 was acquired from Selleck Chemicals (Houston, TX). For in vitro work, emetine dihydrochloride hydrate was dissolved in sterile H2O at 50 mM. Homoharringtonine was dissolved in DMSO at 10 mg/mL. Panobinostat was dissolved in DMSO at 425 μM. […] AZD-7762 was dissolved in DMSO at 500 μM. Recombinant human TGF-β1 (Sigma-Aldrich) was dissolved in sterile H2O at 50 µg/mL. All-trans-retinoic acid (Thermo Scientific) was dissolved in DMSO at 10 mM.

[4] = system: primary human keloid fibroblasts; assay: Collagen I deposition in keloid fibroblasts (Western blot, immunofluorescence); type: cell-based; conditions: keloid fibroblasts, 1,000 nM Ch55, presence and absence of TGF-β1, 48 hours
Experimental: Since overproduction of collagen is characteristic of fibroblasts in tissue fibrosis, including hypertrophic scar and keloid, we wished to determine whether Ch55 also affects deposition of collagen I by these fibroblasts.
Cells cultured on glass coverslips were fixed in 4% paraformaldehyde for 30 minutes at room temperature. Cells were blocked in 10% normal goat serum and incubated overnight at 4° C. in solutions of the following primary antibodies: Rabbit monoclonal α-human α-SMA (1:500 dilution, catalog #192455, Cell Signaling Technology, Danvers M A) or mouse α-human COL1A1 (1:1000 dilution, catalog #M-38c, DSHB, Iowa City, IA). The following day, cells were incubated in 1:200 diluted solutions of goat-α-rabbit IgG or donkey-α-mouse IgG Alexafluor 488-conjugated secondary antibodies (A11034 or A21202, Invitrogen) containing Alexafluor 568-conjugated phalloidin (A12380, Invitrogen) for 2 hours in the dark at room temperature, before a 20 minute counterstain in 500 ng/mL DAPI. […]
Harvested scar tissues were incubated in 0.5M ammonium thiocyanate for 20 minutes, followed by mechanical separation of dermis and epidermis using a dissecting microscope. […] Protein concentrations of cell culture and tissue samples were determined using a DC protein assay (BioRad). […]

CC(C)(C)c1cc(C(=O)/C=C/c2ccc(C(=O)O)cc2)cc(C(C)(C)C)c1 [Ch55]
collagen density of the scars (Masson's Trichrome, picrosirius red/fast green) ([1]; Ch55-treated wounds): possible decrease
amount of type I collagen in the dermis (Western blot, densitometry) ([1]; high dose (10 μg)): sufficient to reduce
erythema in developed scars ([1]; high dose (10 μg)): significantly decreased
amount of type I collagen in the dermis (Western blot, densitometry) ([1]; low dose (2 μg)): sufficient to reduce
erythema in developed scars ([1]; low dose (2 μg)): not statistically significant
effects on morphology and gene expression in fibroblasts of another tissue donor [2]: comparable effects
ACTA2 expression (qRT-PCR) [3]: clear and consistent downregulation
CCN2 expression (qRT-PCR) [3]: clear and consistent downregulation
MMP1 expression (qRT-PCR) [3]: without downregulating
SERPINE1 expression (qRT-PCR) [3]: clear and consistent downregulation
collagen I deposition (Western blot, immunofluorescence) [4]: dramatic reduction

From patent US20240245639A1, “Dermal Application of Retinoic Acid Receptor Agonists for Amelioration of Hypertrophic Scar” (Northwestern University, priority 2023, published 2024)
